According to PubChem BioAssay AID310 (DTP/NCI, 2004):
Several values for one entry are separate records, joined by “and”; a condition that tells them apart may be missing. Equal entries are not always repeated. Results filed as inconclusive are left out.

Test system: C3AKF1 mice, osteogenic sarcoma HE10734 s.c., tumor weight T/C
Experiment: NCI In Vivo Anticancer Drug Screen. Data for tumor model Osteogenic Sarcoma HE 10734 (subcutaneous) in C3AKF1 (CHKRF1) mice
Conditions: endpoint: mean tumor weight, schedule: Q01DX010 (ip), higher = larger tumour
Procedure: The antitumor activity of compounds was measured in mice bearing transplantable tumors. Survival or tumor size were measured and the results are expressed as the measurement made in the treated group (T) divided by the measurement made in the vehicle treated control group (C). The tumor model used in this assay is Osteogenic Sarcoma HE 10734 (subcutaneous) in C3AKF1 (CHKRF1) mice

[1] = dose: 30.0 mg/kg/injection, vehicle: saline
[2] = dose: 120.0 mg/kg/injection, vehicle: saline
[3] = dose: 75.0 mg/kg/injection, vehicle: saline
[4] = dose: 20.0 mg/kg/injection, vehicle: saline
[5] = dose: 0.75 mg/kg/injection, vehicle: saline
[6] = dose: 3.0 mg/kg/injection, vehicle: saline
[7] = dose: 6.25 mg/kg/injection, vehicle: carboxymethylcellulose (CMC)
[8] = dose: 12.5 mg/kg/injection, vehicle: carboxymethylcellulose (CMC)
[9] = dose: 25.0 mg/kg/injection, vehicle: saline
[10] = dose: 50.0 mg/kg/injection, vehicle: saline
[11] = dose: 100.0 mg/kg/injection, vehicle: saline
[12] = dose: 125.0 mg/kg/injection, vehicle: saline
[13] = dose: 250.0 mg/kg/injection, vehicle: saline
[14] = dose: 35.0 mg/kg/injection, vehicle: carboxymethylcellulose (CMC)
[15] = dose: 30.0 mg/kg/injection, vehicle: carboxymethylcellulose (CMC)
[16] = dose: 6.0 mg/kg/injection, vehicle: saline
[17] = dose: 12.0 mg/kg/injection, vehicle: saline
[18] = dose: 22.0 mg/kg/injection, vehicle: carboxymethylcellulose (CMC)

c1cc2n(n1)CCN2
T/C [1]: 100 % of control
T/C (dose: 60.0 mg/kg/injection, vehicle: saline): 68 % of control
T/C [2]: 40 % of control

CCOC(=O)Sc1ncnc2nc[nH]c12
T/C (dose: 112.0 mg/kg/injection, vehicle: carboxymethylcellulose (CMC)): 13 % of control

O=c1[nH]cnc2n[nH]nc12
T/C [3]: 80 % of control
T/C (dose: 150.0 mg/kg/injection, vehicle: saline): 103 % of control
T/C (dose: 300.0 mg/kg/injection, vehicle: saline): 87 % of control
T/C (dose: 600.0 mg/kg/injection, vehicle: saline): 99 % of control

Clc1ncnc2c1ncn2C1CCCO1 (stereo not drawn)
T/C (dose: 37.0 mg/kg/injection, vehicle: saline): 77 % of control and 80 % of control
T/C (dose: 450.0 mg/kg/injection, vehicle: saline): 69 % of control

O=C1N(Cl)C(=O)C(c2ccc(Cl)cc2)(c2ccc(Cl)cc2)N1Cl
T/C (dose: 10.0 mg/kg/injection, vehicle: saline): 70 % of control
T/C [4]: 58 % of control
T/C (dose: 40.0 mg/kg/injection, vehicle: saline): 90 % of control
T/C (dose: 80.0 mg/kg/injection, vehicle: saline): 67 % of control and 77 % of control
T/C [2]: 48 % of control
T/C (dose: 180.0 mg/kg/injection, vehicle: saline): 55 % of control
T/C (dose: 270.0 mg/kg/injection, vehicle: saline): 53 % of control

COc1ccc(Nc2ccnc3cc(Cl)ccc23)cc1CN(CCCl)CCCl
T/C [5]: 73 % of control
T/C (dose: 1.5 mg/kg/injection, vehicle: saline): 57 % of control
T/C [6]: 69 % of control

Cc1ccc(N2CCN(CCCN3CCN(c4ccc(Cl)cc4)CC3)CC2)cc1
T/C [7]: 97 % of control
T/C [8]: 77 % of control
T/C (dose: 25.0 mg/kg/injection, vehicle: carboxymethylcellulose (CMC)): 102 % of control

C/C=C1\CN(C)[C@H]2Cc3c([nH]c4ccccc34)[C@@H](c3cc4[nH]c5c(c4cc3OC)CCN3C[C@H]4C[C@H](CC)[C@H]3[C@@]5(C(=O)OC)C4)C[C@H]1C2C(=O)OC (stereo partly drawn)
T/C (dose: 20.0 mg/kg/injection, vehicle: water): 49 % of control

CCC(=O)NC1=C(N2CC2)C(=O)C(NC(=O)CC)=C(N2CC2)C1=O
T/C (dose: 0.26 mg/kg/injection, vehicle: saline): 118 % of control
T/C (dose: 0.4 mg/kg/injection, vehicle: saline): 77 % of control
T/C (dose: 1.2 mg/kg/injection, vehicle: saline): 30 % of control

O=P1(N(CCCl)CCCl)NCCCO1 (stereo not drawn)
T/C (dose: 3.6 mg/kg/injection, vehicle: saline): 172 % of control
T/C (dose: 5.5 mg/kg/injection, vehicle: saline): 151 % of control
T/C (dose: 8.3 mg/kg/injection, vehicle: saline): 93 % of control
T/C [9]: 22 % of control
T/C [10]: 5 % of control
T/C [11]: 2 % of control

CCOc1ccc(Nc2ncnc3nc[nH]c23)cc1CN(CCCl)CCCl
T/C (dose: 1.0 mg/kg/injection, vehicle: carboxymethylcellulose (CMC)): 86 % of control
T/C (dose: 4.0 mg/kg/injection, vehicle: carboxymethylcellulose (CMC)): 94 % of control
T/C (dose: 8.0 mg/kg/injection, vehicle: carboxymethylcellulose (CMC)): 83 % of control and 95 % of control

C=CC(=O)NCNC(=O)C=C
T/C (dose: 37.5 mg/kg/injection, vehicle: saline): 66 % of control
T/C [3]: 65 % of control

CCCCCCCCCCCCCS
T/C [9]: 76 % of control
T/C [10]: 87 % of control
T/C [11]: 82 % of control
T/C (dose: 200.0 mg/kg/injection, vehicle: saline): 89 % of control

Nc1nc(SCc2ccccc2)c2ncn(C3CCCC3)c2n1
T/C [12]: 80 % of control
T/C [13]: 115 % of control
T/C (dose: 500.0 mg/kg/injection, vehicle: saline): 83 % of control
T/C (dose: 1000.0 mg/kg/injection, vehicle: saline): 63 % of control

O=C(O)C(=O)c1ccc(-c2ccccc2)cc1
T/C [14]: 69 % of control

O=C(O)c1ccc(-c2ccccc2)cc1
T/C (dose: 200.0 mg/kg/injection, vehicle: carboxymethylcellulose (CMC)): 70 % of control

NC(N)=N/N=C/C=N/N=C(N)N
T/C [15]: 81 % of control

CCCNC(=NC)c1ccc(NC(=O)c2ccc(C(=O)Nc3ccc(C(=NC)NCCC)cc3)cc2)cc1
T/C [6]: 91 % of control
T/C [16]: 46 % of control
T/C [17]: 46 % of control

O=[N+]([O-])c1ccccc1CSc1ncnc2nc[nH]c12
T/C (dose: 62.0 mg/kg/injection, vehicle: saline): 106 % of control
T/C [12]: 81 % of control
T/C [13]: 28 % of control

Nc1nc(N)c(N=O)c(Nc2ccc(Br)cc2)n1
T/C [18]: 94 % of control
T/C (dose: 44.0 mg/kg/injection, vehicle: carboxymethylcellulose (CMC)): 66 % of control
T/C (dose: 88.0 mg/kg/injection, vehicle: carboxymethylcellulose (CMC)): 62 % of control
T/C (dose: 175.0 mg/kg/injection, vehicle: carboxymethylcellulose (CMC)): 58 % of control and 61 % of control
T/C (dose: 265.0 mg/kg/injection, vehicle: carboxymethylcellulose (CMC)): 33 % of control
T/C (dose: 395.0 mg/kg/injection, vehicle: carboxymethylcellulose (CMC)): 34 % of control

CCCCn1cnc2c(SC)nc(N)nc21
T/C [15]: 69 % of control
T/C (dose: 115.0 mg/kg/injection, vehicle: carboxymethylcellulose (CMC)): 71 % of control

O=C(c1ccc(C(=O)N2CC2)cc1)N1CC1
T/C (dose: 3.13 mg/kg/injection, vehicle: carboxymethylcellulose (CMC)): 55 % of control
T/C [7]: 106 % of control
T/C [8]: 118 % of control

[I][Hg][CH2]C1COCC([CH2][Hg][I])O1.[I][Hg][CH2]C1COCC([CH2][Hg][I])O1 (stereo not drawn)
T/C [16]: 83 % of control
T/C [17]: 52 % of control

CCCCn1cnc2c(=S)nc(N)[nH]c21
T/C [6]: 49 % of control
T/C [16]: 51 % of control
T/C (dose: 11.0 mg/kg/injection, vehicle: saline): 29 % of control
T/C (dose: 22.0 mg/kg/injection, vehicle: saline): 7 % of control

O=C(O)Cc1ccc(C2CCCCC2)cc1
T/C (dose: 150.0 mg/kg/injection, vehicle: carboxymethylcellulose (CMC)): 95 % of control

S=c1nc[nH]c2c1ncn2C1CCCO1 (stereo not drawn)
T/C [17]: 84 % of control
T/C [9]: 85 % of control
T/C [10]: 62 % of control
T/C [11]: 30 % of control and 33 % of control

CN(C)[C@@H]1C(=O)C(C(=O)NCN(CCCl)CCCl)=C(O)[C@@]2(O)C(=O)C3=C(O)c4c(O)cccc4[C@@](C)(O)[C@H]3C[C@@H]12
T/C (dose: 8.9 mg/kg/injection, vehicle: saline): 105 % of control
T/C (dose: 13.0 mg/kg/injection, vehicle: saline): 84 % of control
T/C [4]: 94 % of control
T/C [1]: 52 % of control and 69 % of control
T/C (dose: 44.0 mg/kg/injection, vehicle: saline): 53 % of control

CCCCCCCCCCCCCCCCC(C(=O)O)C(O)(CC(=O)O)C(=O)O (stereo not drawn)
T/C [18]: 100 % of control
T/C [14]: 68 % of control

CCCC(=O)NC1=C(N2CC2)C(=O)C(NC(=O)CCC)=C(N2CC2)C1=O
T/C (dose: 0.5 mg/kg/injection, vehicle: saline): 104 % of control
T/C [5]: 72 % of control
T/C (dose: 1.1 mg/kg/injection, vehicle: saline): 83 % of control
T/C (dose: 1.7 mg/kg/injection, vehicle: saline): 47 % of control and 60 % of control
